Literature values in patent US20100022444A1, “COMBINATION THERAPY FOR MODULATION OF ACTIVITY AND DEVELOPMENT OF CELLS AND TISSUES” (BodyBio, Inc., priority 2008, published 2010).

Test system: mouse model of Bulbar ALS
Conditions: oral administration

In the case of `CCCC(=O)[O-].[Na+]` [sodium butyrate], the “acetylation of nuclear histone in neural tissues” value is given as “increased acetylation of nuclear histone in neural tissues” and the neurological phenotypes is given as “successfully ameliorated neurological phenotypes”.
